# Target: T1, human recombinant 15-PGDH (Homo sapiens, UniProt P15428)
# T1 sequence (P15428 1-266): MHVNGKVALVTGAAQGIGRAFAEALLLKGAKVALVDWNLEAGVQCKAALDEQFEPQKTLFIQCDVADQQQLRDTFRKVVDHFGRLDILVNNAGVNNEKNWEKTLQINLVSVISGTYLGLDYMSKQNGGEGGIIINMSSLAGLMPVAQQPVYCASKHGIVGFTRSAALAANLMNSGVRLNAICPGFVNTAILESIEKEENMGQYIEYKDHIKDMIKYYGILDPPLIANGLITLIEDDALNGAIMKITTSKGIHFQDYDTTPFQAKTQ
# Experiment: Inhibition of recombinant 15-PGDH enzymatic activity (NADH quantification after addition of PGE2 and NAD+)
# Format: biochemical
# Conditions: recombinant 15-PGDH; 15 min pre-incubation, 60-minute reaction, room temperature, pH 7.5; PGE2 and NAD+; read-out: PGDH-Lumi IC50
# Experimental: The compound dose-response of its inhibition of 15-PGDH activity was determined in human recombinant 15-PGDH enzymatical assays. These assays measured 15-PGDH enzymatic activity by quantifying the amount of NADH produced during a 60-minute reaction initiated by the addition of PGE2 and NAD+. Under the conditions of these experiments, the increase of NADH signal upon oxidation of PGE2 and reduction of NAD+ was linearly proportional to 15-PGDH enzymatic activity. The recombinant human, mouse, rat and dog 15-PGDH enzymatic assays were performed in a 25 μL volume of reaction buffer containing 50 mM Tris, pH 7.5, 0.01% Tween-20 and 100 μM DTT in a 384-well microtiter plate. In concentration-response experiments with tested compounds, 22 concentrations from 2-fold serial dilutions in DMSO were pre-incubated with 15-PGDH for 15 minutes at room temperature. Then, PGE2 and ß-NAD+ were added to initiate the 15-PGDH reaction. After 60 minutes at room temperature, the reaction was quenched and NADH signal was measured using a microtiter plate reader.
# The following data (Table 11-1) provides the IC50 of each compound for inhibiting enzymatic activity of recombinant 15-PGDH in the assay described above.
row,Compound,IC50 [nM]
1,CC1CN(C(=O)c2cc3ccc(-c4cnc5nn(C)cc5c4)nc3s2)CCO1 (stereo not drawn) [Compound B31],1.34
2,"C[C@H]1COCCN1C(=O)c1cc2ccc(-c3cnc4c(=O)n(C)ccc4c3)nc2s1 [Compound B62S, 7-methyl-3-(2-(((3S)-3-methyl-4-morpholinyl)carbonyl)thieno[2,3-b]pyridin-6-yl)-1,7-naphthyridin-8(7H)-one]",39.2
3,"Cn1cc2cc(-c3nc(C4CC4)c4sc(C(=O)N5CCOCC5)cc4n3)cnc2n1 [Compound C49, (4-cyclopropyl-2-(2-methyl-2H-pyrazolo[3,4-b]pyridin-5-yl)thieno[3,2-d]pyrimidin-6-yl)(4-morpholinyl)methanone]",1.67
4,"Cn1cc2cc(-c3cc(-c4ccnn4C)c4cc(C(=O)N5CCOCC5)sc4n3)cnc2n1 [Compound B13, (6-(2-methyl-2H-pyrazolo[3,4-b]pyridin-5-yl)-4-(1-methyl-1H-pyrazol-5-yl)thieno[2,3-b]pyridin-2-yl)(4-morpholinyl)methanone]",1.26
5,"Cn1cc2cc(-c3ccc4sc(C(=O)N5CCCCC5)cc4n3)cnc2n1 [Compound C42, (5-(2-methyl-2H-pyrazolo[3,4-b]pyridin-5-yl)thieno[3,2-b]pyridin-2-yl)(1-piperidinyl)methanone]",0.394
6,"Cc1c(C(=O)N2CCOC[C@@H]2C)sc2cc(-c3cnc4nn(C)cc4c3)ccc12 [Compound A1S, (3-methyl-6-(2-methyl-2H-pyrazolo[3,4-b]pyridin-5-yl)-1-benzothiophen-2-yl)((3S)-3-methyl-4-morpholinyl)methanone]",217
7,"Cn1cc2cc(-c3cc(C4CCC4)c4c(N)c(C(=O)N5CCOCC5)sc4n3)cnc2n1 [Compound B3, (3-amino-4-cyclobutyl-6-(2-methyl-2H-pyrazolo[3,4-b]pyridin-5-yl)thieno[2,3-b]pyridin-2-yl)(4-morpholinyl)methanone]",0.711
8,"C[C@H]1COCCN1C(=O)c1nc2ccc(-c3cnc4nn(C)cc4c3)nc2s1 [Compound C52S, ((3S)-3-methyl-4-morpholinyl)(5-(2-methyl-2H-pyrazolo[3,4-b]pyridin-5-yl)[1,3]thiazolo[5,4-b]pyridin-2-yl)methanone]",25.7
9,"Cn1cc2cc(-c3cc(C4CC4)c4cc(C(=O)N5CCC(F)(F)CC5)sc4n3)cnc2n1 [Compound B19, (4-cyclopropyl-6-(2-methyl-2H-pyrazolo[3,4-b]pyridin-5-yl)thieno[2,3-b]pyridin-2-yl)(4,4-difluoro-1-piperidinyl)methanone]",0.853
10,"C[C@H]1COCCN1C(=O)c1cc2ccc(-c3ccc(=O)[nH]c3)nc2s1 [Compound B48S, 5-(2-(((3S)-3-methyl-4-morpholinyl)carbonyl)thieno[2,3-b]pyridin-6-yl)-2(1H)-pyridinone]",986
11,"Cn1nnc2cc(-c3ccc4cc(C(=O)N5CCOCC5)sc4n3)cnc21 [Compound B54, (6-(3-methyl-3H-[1,2,3]triazolo[4,5-b]pyridin-6-yl)thieno[2,3-b]pyridin-2-yl)(4-morpholinyl)methanone]",16.1
12,"CC(C)c1cc[n+]([O-])c2sc(C(=O)N3CCCCC3)cc12 [Compound B7, (7-oxido-4-(2-propanyl)thieno[2,3-b]pyridin-2-yl)(1-piperidinyl)methanone]",> 100000
13,"Cn1nc2cc(-c3ccc4cc(C(=O)N5CCOCC5)sc4n3)cnc2n1 [Compound B42, (6-(2-methyl-2H-[1,2,3]triazolo[4,5-b]pyridin-6-yl)thieno[2,3-b]pyridin-2-yl)(4-morpholinyl)methanone]",6.33
14,"Cn1cc2cc(-c3cc(-c4ccnn4C)c4cc(C(=O)N5CCSCC5)sc4n3)cnc2n1 [Compound B14, (6-(2-methyl-2H-pyrazolo[3,4-b]pyridin-5-yl)-4-(1-methyl-1H-pyrazol-5-yl)thieno[2,3-b]pyridin-2-yl)(4-thiomorpholinyl)methanone]",0.519
15,"Cc1c(C(=O)N2CCOCC2)sc2cc(-c3cncnc3)ccc12 [Compound A8, (3-methyl-6-(5-pyrimidinyl)-1-benzothiophen-2-yl)(4-morpholinyl)methanone]",4500
16,"CO[C@@H]1CCCN(C(=O)c2sc3cc(-c4cnc5nn(C)cc5c4)ccc3c2C)C1 [Compound A7R, ((3R)-3-methoxy-1-piperidinyl)(3-methyl-6-(2-methyl-2H-pyrazolo[3,4-b]pyridin-5-yl)-1-benzothiophen-2-yl)methanone]",49.5
17,Cn1cc2cc(-c3cnc4cc(C(=O)N5CCC(F)(F)CC5)sc4n3)cnc2n1 [Compound C39],1.38
18,"Cn1cc2cc(-c3ccc4cc(C(=O)N5CCOCC5C#N)sc4n3)cnc2n1 (stereo not drawn) [Compound B30, 4-((6-(2-methyl-2H-pyrazolo[3,4-b]pyridin-5-yl)thieno[2,3-b]pyridin-2-yl)carbonyl)-3-morpholinecarbonitrile]",212
19,"Cn1ccc2cc(-c3ccc4cc(C(=O)N5CCOCC5)sc4n3)cnc2c1=O [Compound B58, 7-methyl-3-(2-(4-morpholinylcarbonyl)thieno[2,3-b]pyridin-6-yl)-1,7-naphthyridin-8(7H)-one]",8.15
20,"C[C@@H]1COCCN1C(=O)c1cc2ccc(-c3cnc4nccnc4c3)nc2s1 [Compound B60R, ((3R)-3-methyl-4-morpholinyl)(6-(pyrido[2,3-b]pyrazin-7-yl)thieno[2,3-b]pyridin-2-yl)methanone]",10.6
21,"Cn1cc2cc(-c3ccc4cc(C(=O)N5CCOC(C(F)(F)F)C5)sc4n3)cnc2n1 (stereo not drawn) [Compound B46, (6-(2-methyl-2H-pyrazolo[3,4-b]pyridin-5-yl)thieno[2,3-b]pyridin-2-yl)(2-(trifluoromethyl)-4-morpholinyl)methanone]",2.6
22,"Cc1c(C(=O)N2CCOCC2)sc2cc(-c3ccc(=O)n(C)c3)ccc12 [Compound A9, 1-methyl-5-(3-methyl-2-(4-morpholinylcarbonyl)-1-benzothiophen-6-yl)-2(1H)-pyridinone]",4960
23,"C[C@H]1COCCN1C(=O)c1cc2ccc(-c3nccs3)nc2s1 [Compound B33S, ((3S)-3-methyl-4-morpholinyl)(6-(1,3-thiazol-2-yl)thieno[2,3-b]pyridin-2-yl)methanone]",2650
24,"COCCN(C)C(=O)c1sc2cc(-c3cnc4nn(C)cc4c3)ccc2c1C [Compound A5, N-(2-methoxyethyl)-N,3-dimethyl-6-(2-methyl-2H-pyrazolo[3,4-b]pyridin-5-yl)-1-benzothiophene-2-carboxamide]",87.8
25,"Cn1cc2cc(-c3ccc4cc(C(=O)N5CCOCC5)sc4n3)cnc2n1 [Compound B8, (6-(2-methyl-2H-pyrazolo[3,4-b]pyridin-5-yl)thieno[2,3-b]pyridin-2-yl)(4-morpholinyl)methanone]",5.55
26,"C[C@@H]1COCCN1C(=O)c1cc2ccc(-c3cc(=O)n(C)cn3)nc2s1 [Compound B36R, 3-methyl-6-(2-(((3R)-3-methyl-4-morpholinyl)carbonyl)thieno[2,3-b]pyridin-6-yl)-4(3H)-pyrimidinone]",311
27,"Cc1c(C(=O)N2CCOC[C@H]2C)sc2cc(-c3cnc4nn(C)cc4c3)ccc12 [Compound A1R, (3-methyl-6-(2-methyl-2H-pyrazolo[3,4-b]pyridin-5-yl)-1-benzothiophen-2-yl)((3R)-3-methyl-4-morpholinyl)methanone]",273
